ChEMBL document CHEMBL1125198, “Synthesis, ligand binding, QSAR, and CoMFA study of 3 beta-(p-substituted phenyl)tropane-2 beta-carboxylic acid methyl esters” (J Med Chem, 1991)
pIC50: −log10 of the molar value.

biological target: Sodium-dependent dopamine transporter (Rattus norvegicus, UniProt P23977); test: Affinity against cocaine binding site of dopamine transporter in rat striatum using [3H]2b as radioligand.; type: tissue-based
Sequence (P23977 whole entry): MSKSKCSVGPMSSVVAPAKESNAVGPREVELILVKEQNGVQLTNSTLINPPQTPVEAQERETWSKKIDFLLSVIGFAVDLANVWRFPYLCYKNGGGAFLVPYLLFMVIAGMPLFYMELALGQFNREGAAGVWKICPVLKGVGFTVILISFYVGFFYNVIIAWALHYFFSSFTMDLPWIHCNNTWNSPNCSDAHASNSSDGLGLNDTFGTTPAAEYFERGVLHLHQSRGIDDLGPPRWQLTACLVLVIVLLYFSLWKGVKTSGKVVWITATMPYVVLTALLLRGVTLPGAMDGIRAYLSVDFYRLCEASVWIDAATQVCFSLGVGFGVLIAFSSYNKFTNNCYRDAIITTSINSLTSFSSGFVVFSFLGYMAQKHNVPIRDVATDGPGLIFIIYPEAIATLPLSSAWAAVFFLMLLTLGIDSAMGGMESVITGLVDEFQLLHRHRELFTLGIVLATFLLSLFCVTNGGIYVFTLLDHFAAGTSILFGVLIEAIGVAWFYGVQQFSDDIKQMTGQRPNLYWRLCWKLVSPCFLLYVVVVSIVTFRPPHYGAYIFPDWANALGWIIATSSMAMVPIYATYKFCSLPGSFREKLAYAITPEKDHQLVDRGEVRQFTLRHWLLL

Structure (SMILES) | pIC50
COC(=O)[C@@H]1C2CC[C@H](C[C@@H]1c1ccccc1)N2C | 7.64
COC(=O)[C@@H]1C2CC[C@H](C[C@@H]1c1cccs1)N2C | 6.59
COC(=O)[C@@H]1C2CC[C@H](C[C@@H]1c1ccc(N=[N+]=[N-])cc1)N2C | 8.67
CCOC(=O)Nc1ccc([C@H]2C[C@H]3CCC([C@H]2C(=O)OC)N3C)cc1 | 6.50
CCC(=O)Nc1ccc([C@H]2C[C@H]3CCC([C@H]2C(=O)OC)N3C)cc1 | 7.17
COC(=O)[C@@H]1C2CC[C@H](C[C@@H]1c1ccc(NC(C)=O)cc1)N2C | 7.19
COC(=O)C1C2CC[C@H](C[C@H]1c1ccc(Br)cc1)N2C (some centres not stated) | 8.74
COC(=O)[C@@H]1C2CC[C@H](C[C@@H]1c1ccc(C(F)(F)F)cc1)N2C | 7.88
COC(=O)C1C2CC[C@H](C[C@H]1c1ccc(C)cc1)N2C (some centres not stated) | 8.77
COC(=O)C1C2CC[C@H](C[C@@H]1c1ccc(I)cc1)N2C (some centres not stated) | 8.90
COC(=O)[C@@H]1C2CC[C@H](C[C@@H]1c1ccc(N)cc1)N2C | 7.61
COC(=O)C1C2CC[C@H](C[C@@H]1c1ccc(Cl)cc1)N2C (some centres not stated) | 8.93
